# Patent publication US7179604B2, “Methods of use of DNA encoding a human histamine receptor of the H3 subtype” (Ortho-McNeil Pharmaceutical, Inc., priority 1998, dated 2007)
# Target: T1, human histamine H3 receptor (Homo sapiens, UniProt Q9Y5N1, E19D)
# T1 construct: achieved by transfection of full-length human histamine H3 receptor cDNA into a mammalian host cell; expressed in transfected cells; membrane preparation
# Assay: Saturation binding of [3H]-N-alpha-methylhistamine to membranes of pH3R expressing L cells
# Conditions: recombinant receptor in L cells, FIG. 7, radioligand 0.01 nM-25 nM, room temperature 45 minutes
# Protocol: Binding Assay on Recombinant Human Histamine H3 Receptor L cells that inhibited forskolin-stimulated cAMP accumulation as described above were grown in 150 cm2 tissue culture dishes. Cells were washed with saline solution, scraped with a cell scraper and collected by centrifugation (1000 rpm, 5 min). L cells expressing human histamine H3 receptor bound ^3H—N-alpha-methylhistamine with high affinity (FIG. 7). Cell membranes were prepared by homogenization of the cell pellet in 20 mM TRIS-HCl with a polytron tissue homogenizer for 10 seconds at high speed. Homogenate was centrifuged at 1000 rpm for 5 minutes at 4° C. The supernatant was then collected and centrifuged at 20,000×g for 25 minutes at 4° C. The final pellet is resuspended in 50 mM Tris-HCl. Cell membranes were incubated with ^3H—N-alpha-methylhistamine (0.01 nM–25 nM) in the presence or absence of excess histamine (10000 nM). Incubation was done at room temperature for 45 minutes. Membranes were harvested by rapid filtration over Whatman GF/C filters and washed 4 times with ice cold 50 mM TRIS HCl. Filters were then dried, mixed with scintillant and counted for radioactivity. […]
# T1 sequence (Q9Y5N1 whole entry E19D): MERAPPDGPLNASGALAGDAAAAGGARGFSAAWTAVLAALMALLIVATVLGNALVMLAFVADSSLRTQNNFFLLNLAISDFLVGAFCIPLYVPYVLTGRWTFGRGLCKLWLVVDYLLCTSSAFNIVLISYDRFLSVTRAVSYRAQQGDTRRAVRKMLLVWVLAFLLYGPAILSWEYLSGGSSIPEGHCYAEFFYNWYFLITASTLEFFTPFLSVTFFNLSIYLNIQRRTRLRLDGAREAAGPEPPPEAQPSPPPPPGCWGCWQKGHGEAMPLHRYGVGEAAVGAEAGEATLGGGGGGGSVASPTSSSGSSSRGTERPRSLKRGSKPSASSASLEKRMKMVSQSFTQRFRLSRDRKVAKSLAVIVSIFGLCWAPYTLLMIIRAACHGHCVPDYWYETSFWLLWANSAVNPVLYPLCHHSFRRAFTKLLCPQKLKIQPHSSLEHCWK
smiles,measurement,value
[3H]CNCCc1cnc[nH]1 [^3H—N-alpha-methylhistamine],affinity of binding to L cells expressing human histamine H3 receptor,high affinity
